# Laboratory results taken from patent publication US20050203164A1, “Use of acylaminoalkenylene-amide derivatives in functional motility disorders of the viscera” (priority 2002, published 2005).
# No end group written: not given here.
# Assays:
# [1] = tested on: submucosalmucosa preparations of guinea pig colon; assay: epithelial secretion (electrogenic chloride secretion), Ussing chamber short circuit currents; type: cell-based
# Description: Epithelial secretion is tested in submucosalmucosa preparations of guinea pig colon. Using Ussing chamber techniques (Frieling et al., Naunyn Schmiedebergs Arch. Pharmacol. 1999; 359: 71-79) short circuit currents are recorded, and epithelial secretion (electrogenic chloride secretion) is stimulated via cumulative treatment with substance P (0.1 nM up to 10 μM); it triggers secretion (increases in short circuit currents) in a concentration-dependent fashion (pD2=7.50 ).
# [2] = tested on: isolated segments of guinea pig ileum; assay: Substance P-mediated exaggerated peristalsis in organ baths (peristaltic reflex model); type: cell-based
# Source text: Substance P—mediated exaggerated peristalsis is studied in Mayflower organ baths using isolated segments of guinea pig ileum (Holzer et al., J. Pharmacol. Exp. Ther. 1995; 274: 322-328). The lumen of ileal segments is perfused with Krebs-Henseleit solution, and intraluminal pressures are continuously recorded. […] Any wave of peristaltic contractions results in a spike-like increase in intraluminal pressure and causes a partial emptying of fluid from the segment. Pressure thresholds triggering peristaltic contractions are used to quantify the effects of the compound of formula II.
# [3] = tested on: conscious guinea pigs; assay: restraint stress-induced visceral hypersensitivity, visceromotor response to colorectal distension; type: in vivo, guinea pig; conditions: restraint stress-induced colonic hypersensitivity, p<0.05 ANOVA post-hoc Dunnett's test
# Description: (§1) In conscious guinea pigs, two experimental paradigms are applied to induce visceral hypersensitivity, i) restraint stress (immobilization of the animals in a tube) and ii) colonic tissue irritation (colonic instillation of acetic acid, 0.6% in saline, 1.5 ml, 2 cm proximal to the anus). Colorectal distension is performed by inflating a balloon to a net pressure (at the colonic wall) of 20 mmHg (26.7 mbar) for 10 minutes before and following induction of visceral hypersensitivity. During the distension period the visceromotor response, i.e. the number and quality of abdominal contractions (body arching and lifting of pelvic structures) are recorded and quantified in a blinded fashion (Al-Chaer et al., Gastroenterology 2000; 119: 1276-1285). Following the performance of baseline colorectal distension protocols, vehicle or the compound of formula II (3 and 10 mg/kg) are dosed orally one hour prior to the second colorectal distensions, which are done after the induction of visceral hypersensitivity. The effects of vehicle and the compound of formula II are assessed in 6-8 animals. […] The compound of formula II reverses the exaggerated behavioural pain responses upon colorectal balloon distensions in both restraint stress-induced and tissue irritation-induced colonic hypersensitivity.
# [4] = tested on: conscious guinea pigs; assay: colonic tissue irritation (acetic acid)-induced visceral hypersensitivity, visceromotor response to colorectal distension; type: in vivo, guinea pig; conditions: p<0.05 ANOVA post-hoc Dunnett's test
# Description: as §1
# [5] = 3 mg/kg p.o. one hour prior to distension
# [6] = 10 mg/kg p.o. one hour prior to distension
Compound,"pD2, stimulation of secretion (increases in short circuit currents) ([1]; cumulative treatment 0.1 nM up to 10 μM)","pD2, lowering of pressure thresholds triggering peristaltic contractions ([2]; cumulative application 1 nM up to 30 μM)","pA2 (Schild plot analysis), competitive inhibition of substance P-induced electrogenic chloride secretion ([1]; 30 nM, 100 nM and 300 nM)","apparent pA2, competitive inhibition of substance P-evoked exaggerated peristalsis ([2]; 30 nM)","apparent pA2, competitive inhibition of substance P-evoked exaggerated peristalsis ([2]; 100 nM)","reversal of exaggerated behavioural pain responses upon colorectal balloon distension [3, 5]","reversal of exaggerated behavioural pain responses upon colorectal balloon distension [3, 6]","reversal of exaggerated behavioural pain responses upon colorectal balloon distension [4, 5]","reversal of exaggerated behavioural pain responses upon colorectal balloon distension [4, 6]"
"substance P: agonist applied cumulatively to evoke exaggerated peristalsis and epithelial chloride secretion (RPKPQQFFGLM; ends and bridges not checked; UniProt P20366 58-68, looked up) [reference compound]",7.50,7.20,–,–,–,–,–,–,–
"CN(C(=O)c1cc(C(F)(F)F)cc(C(F)(F)F)c1)[C@@H](/C=C/C(=O)N[C@@H]1CCCCNC1=O)Cc1ccc(Cl)c(Cl)c1 [compound of formula II, (4R)-4-[N′-methyl-N′-(3,5-bistrifluoromethylbenzoyl)amino]-4-(3,4-dichlorobenzyl)-but-2-enoic acid N-[(R)-epsilon-caprolactam-3-yl]-amide]",–,–,7.94,7.35,7.23,statistically significant,statistically significant,statistically significant,statistically significant
